According to BindingDB's records for doi:10.1021/jm00114a015 (National Institute of Diabetes and Digestive and Kidney …, 1991):

Key:
[1] = Compound was tested for the inhibitory activity against Sigma opioid receptor by using [3H](+)-3-PPP as radioligand in guinea pig brain
[2] = as above; remark: listed apart in the source

CN(Cc1ccc(Cl)c(Cl)c1)[C@H]1CCCC[C@H]1N1CCCC1
Ki [1]: 1.2 nM

CCN(CCc1ccc(Cl)c(Cl)c1)[C@@H]1CCCC[C@@H]1N1CCCC1
Ki [1]: 3.5 nM

CCN(CCc1ccc(Cl)c(Cl)c1)[C@H]1CCCC[C@H]1N1CCCC1
Ki [2]: 3.1 nM

CCCN(CCc1ccc(Cl)c(Cl)c1)[C@@H]1CCCC[C@@H]1N1CCCC1
Ki [2]: 56 nM

CCCN(CCc1ccc(Cl)c(Cl)c1)[C@H]1CCCC[C@H]1N1CCCC1
Ki [2]: 140 nM
